Among the data in ChEMBL document CHEMBL2380262, “Pyrrolidine analogs of GZ-793A: synthesis and evaluation as inhibitors of the vesicular monoamine transporter-2 (VMAT2)” (Bioorg Med Chem Lett, 2013) are Ki values, retold here.

Structures are written as SMILES.

Experiment [1] has as its target T1, Synaptic vesicular amine transporter (Rattus norvegicus, UniProt Q01827). Nature of the experiment: Inhibition of VMAT2-mediated [3H]DA uptake in rat striatal synaptic vesicles by liquid scintillation spectroscopic analysis.
Experiment [2] addresses T1, Synaptic vesicular amine transporter. The experiment can be described thus: Displacement of [3H]DTBZ from VMAT2 in Sprague-Dawley rat synaptic vesicle membranes after 30 mins by scintillation counting analysis. The class given is cell membranes, Membrane. On the technique in general: In a radioligand displacement assay an active substance lowers the binding of a labelled ligand.

T1 sequence (Q01827 whole entry): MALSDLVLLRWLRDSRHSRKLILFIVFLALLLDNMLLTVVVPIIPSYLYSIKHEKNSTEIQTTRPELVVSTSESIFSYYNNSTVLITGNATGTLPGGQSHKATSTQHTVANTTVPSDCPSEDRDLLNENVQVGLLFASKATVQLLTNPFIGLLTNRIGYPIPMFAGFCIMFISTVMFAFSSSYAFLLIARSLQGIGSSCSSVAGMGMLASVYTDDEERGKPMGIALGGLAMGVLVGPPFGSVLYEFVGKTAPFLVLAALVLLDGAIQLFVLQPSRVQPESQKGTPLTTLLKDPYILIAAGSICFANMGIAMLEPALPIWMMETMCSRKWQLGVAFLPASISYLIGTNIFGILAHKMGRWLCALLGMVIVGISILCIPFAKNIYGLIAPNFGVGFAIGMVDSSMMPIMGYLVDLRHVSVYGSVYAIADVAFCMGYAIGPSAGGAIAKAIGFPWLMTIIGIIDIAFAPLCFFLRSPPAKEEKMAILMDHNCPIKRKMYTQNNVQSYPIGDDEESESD

A word on the Ki: it is the equilibrium dissociation constant of an inhibitor or competing ligand from its target. Higher therefore signals weaker binding. As to `OC[C@H](O)CN1[C@H](CCc2ccccc2)CC[C@@H]1CCc1ccccc1`, the inhibition constant (Ki) in experiment [1] worked out at 279 nM; in experiment [2], 5910 nM.

Take `COc1ccc(CC[C@@H]2CC[C@H](CCc3ccc(OC)cc3)N2C[C@@H](O)CO)cc1`: the values for the Ki in experiment [1] and in experiment [2] were 49 nM and 3940 nM, respectively.

For the molecule `COc1ccccc1CC[C@@H]1CC[C@H](CCc2ccccc2OC)N1C[C@@H](O)CO`, the inhibition constant Ki in experiment [1] came out at 270 nM; in experiment [2], 2350 nM.

As for `OC[C@H](O)CN1[C@H](CCc2ccc3c(c2)OCO3)CC[C@@H]1CCc1ccc2c(c1)OCO2`, the Ki is 269 nM in experiment [1] and 8470 nM in experiment [2].

In the case of `COc1ccc(CC[C@@H]2CC[C@H](CCc3ccc(OC)c(OC)c3)N2C[C@@H](O)CO)cc1OC`, the Ki in experiment [1] was 3780 nM; in experiment [2], greater than 100000 nM.
